What was measured:
[1] = system: BxPC-3 cells; experiment: Annexin V-FITC/PI apoptosis assay by flow cytometry; format: cell-based, human; conditions: 72 h
Protocol: Cells were cultured in 6-well plates containing different concentrations of eravacycline, gemcitabine, or doxorubicin (medium alone was used as a control) for 72 h. Afterward, cells were collected by trypsinization for flow cytometry analysis. Cells were resuspended in 100 μl binding buffer, then stained with 5 μl propidium iodide (PI) and 5 μl Annexin V-FITC (Annexin V-FITC Apoptosis Detection Kit with PI-BioLegend) at room temperature for 20 min in the dark. Finally, the cells were collected and analyzed by FACS (Sony SP6800 Spectral cell analyzer), and the data was analyzed using SP6800 spectral analyzer software.
To examine eravacycline's effect on cell growth inhibition and the mechanism underlying this, the induction of apoptosis activated by eravacycline treatment in BxPC-3 cells was investigated by performing an Annexin V-FITC (V-fluorescein isothiocyanate) apoptosis assay. The effects of the treatment of BxPC-3 cells with increasing concentrations of eravacycline was evaluated after 72 h. A positive control of 1 μM of doxorubicin was evaluated at the same time point.

[2] = system: BxPC-3 cells; experiment: XTT cell proliferation assay, BxPC-3; format: cell-based, human
Protocol: Human PDAC (AsPC-1, BxPC-3, Panc-1 scr, Panc-1 p53-R273H knock-out (KO) hTERT-HPNE), breast (MCF-7), lung (A549), and colon (HT-29) cancer cell lines were purchased from the American Type Culture Collection (ATCC). The MCF-7, A549, Panc-1 scr, Panc-1 p53 KO and HT-29 cell lines were grown in Dulbecco's Modified Eagle Medium (DMEM; Biological Industries, Beit HaEmek (BI), Israel), and the BxPC-3 and AsPC-1 cell lines were cultured in Roswell Park Memorial Institute-1640 (RPMI-1640; BI, Israel) medium. All media was supplemented with 10% fetal bovine serum (FBS), 200 μM L-glutamine (BI), and 1% penicillin-streptomycin (BI). Cells were cultured at 37° C. in a 5% CO2 humidified incubator.
Eravacycline dihydrochloride (MedChem Express (MCE)) was dissolved in […] (DDW). Tigecycline (MCE) and omadacycline (MCE) were dissolved in dimethyl sulphoxide (DMSO). All drugs were prepared as 100 mM stock solutions. All cell lines were treated with DMSO as a control (less than 0.1%) or tigecycline, omadacycline, or eravacycline (at the indicated concentrations) for 72 hours. Cell viability and proliferation were determined using the XTT Cell Proliferation Assay Kit (Promega).
The XTT Cell Proliferation Assay Kit was used to determine cell viability and proliferation. Cells were seeded in 96-well plates at a density of 4,000 cells per well and allowed to attach overnight in a 5% CO2 incubator at 37° C. After overnight incubation, cells were treated with culture medium or in a medium containing tigecycline, omadacycline, or eravacycline at different concentrations (1, 2, 5, 10, 25, and 50 μM) for the indicated time period. Then, 50 μl XTT reaction solution (0.1 ml activation solution+5 ml XTT reagent solution) was added to each well, and the plate was incubated at 37° C. for two hours. After shaking the plate gently to distribute the dye in the wells, the absorbance was measured with a spectrophotometer (Bio-RadiMark Microplate Absorbance reader) at a wavelength of 450 nm and a reference wavelength of 655 nm.
To evaluate the half maximal inhibitory concentration (IC50) of tetracycline derivatives on five different cell lines (MCF-7, A549, HT-29, BxPC-3, and AsPC-1), the cells were seeded and allowed to attach overnight. All cells were washed with phosphate buffered saline (PBS) and then cultured in fresh media containing the drugs tigecycline, omadacycline, or eravacycline at an increasing concentration (0-50 μM) for 72 h. Inhibition of cell proliferation was determined using the XTT Cell Proliferation Assay Kit.
To investigate the effect of tetracycline derivatives on cell proliferation in human breast, lung, colon, and PDAC cells, the inventors treated all cell lines (MCF-7, A549, HT-29, BxPC-3, and AsPC-1) with different concentrations of tigecycline, omadacycline, and eravacycline (1, 2, 5, 10, 25, and 50 μM), with medium used as a control, for 72 h. Then, an XTT assay was performed to determine the growth inhibition rate.

CN(C)[C@@H]1C(O)=C(C(N)=O)C(=O)[C@@]2(O)C(O)=C3C(=O)c4c(O)c(NC(=O)CN5CCCC5)cc(F)c4C[C@H]3C[C@@H]12 [eravacycline, (4S,4aS,5aR,12aS)-4-(Dimethylamino)-7-fluoro-3,10,12,12a-tetrahydroxy-1,11-dioxo-9-[2-(pyrrolidin-1-yl)acetamido]-1,4,4a,5,5a,6,11,12a-octahydrotetracene-2-carboxamide]
increase in the number of apoptotic cells ([1]; BxPC-3, 10 μM): three-fold | apoptosis ([1]; BxPC-3, 25 μM): ~70% | decrease in cell growth ([2]; BxPC-3, 1 μM, 72 h): 27% | decrease in cell growth ([2]; BxPC-3, 10 μM, 72 h): 63% | decrease in cell growth ([2]; BxPC-3, 50 μM, 72 h): 93% | effect on cell survival / viability (in words) ([2]; BxPC-3, 72 h, 1-50 μM): strong and selective viability reduction | suppression of proliferation, up to ([2]; BxPC-3, 72 h, concentration-dependent, 1-50 μM): 90-93% | cytotoxicity at 25 µM ([2]; Homo sapiens, BXPC-3, 72 h, read-out: decrease in cell growth / viability, BxPC-3, 25 μM, 72 h): 93% | IC50 ([2]; Homo sapiens, BxPC-3, 72 h, XTT, read-out: IC50, inhibition of cell proliferation): 3.57 µM | decrease in cell growth / viability ([2]; human, 72 h, 25 μM): 90%
